Experiments:
[1] = Body weight change in MeCP2 KO mice (HET); format: in vivo, mouse; details: 100 mg/kg po daily from about 5 weeks to 16 weeks old, FIG. 5
Protocol: Vehicle WT group: vehicle (0.9% saline, 10 ml/kg)
Vehicle HET group: vehicle (0.9% saline, 10 ml/kg)
Test compound HET group: 100 mg/kg, po in 0.9% saline
About 5 week old WT and HET mice were treated with daily oral injections of the vehicle or Test compound. Treatment conducted until the mice became 16 weeks old.

[2] = system: MeCP2 KO mice (HET); assay: Hindlimb clasping test in MeCP2 KO mice (HET); format: in vivo, mouse; details: 100 mg/kg, compared to vehicle-treated HET mice, FIG. 7
[3] = system: MeCP2 knockout mice (Null); assay: Survival rate test in MeCP2 knockout mice (Null); format: in vivo, mouse
Protocol: Vehicle Null group: vehicle (0.9% saline, 10 ml/kg)
Test compound Null group: 100 mg/kg, po in 0.9% saline
About 5 week old Null mice were treated with daily oral injections of the vehicle or Test compound. MeCP2 knockout mice (Null) survival rate test was conducted until all animals were dead.
ILS ([…])%: 100×(median survival days of test group-median survival days of vehicle group)/median survival days of vehicle group (FIG. 4).

[4] = system: MeCP2 KO mice (HET); assay: Accelerating rotarod test in MeCP2 KO mice (HET); format: in vivo, mouse; details: accelerating speed 0-40 rpm over 5 min, compared to vehicle-treated HET mice, FIG. 6
Text: The rotarod test is widely used to evaluate the motor coordination of rodents, and is especially sensitive in detecting cerebellar dysfunction. The motor performance on the rotarod can be influenced by several factors, such as motor coordination, learning and cardiopulmonary endurance. Since several studies have shown that basal ganglia are essential in motor skill learning of serial motor sequence. The test measures parameters such as riding time (seconds) or endurance (RPM).
Mice were placed on the rotarod apparatus (Ugo basile, Italy) consisting of a rod that rotates at a constant or variable and accelerating speed of 4 rpm. Once a mouse loses its balance and falls onto an underlying platform, the timer automatically stops. Mice were exposed to the apparatus for 5 min training at a constant speed (4 rpm) and placed back on the rod after each fell. After a rest period of at least 1 hr, animals were placed back on the rotarod apparatus for testing. Once all animals in a test session were loaded on the rod, the rotarod apparatus was placed on accelerating speed (0-40 rpm) over 5 min and then the first falling time was recorded. The test was repeated three consecutive times per animal. For each test session, the RPM score at time of fall off the rod were recorded.

[5] = system: MeCP2 KO mouse primary cortical neurons; assay: Morphological recovery of MeCP2 KO primary neuron: neurite outgrowth (MAP2 immunostaining, DIV5); format: cell-based; details: Test compound 80 and 2000 nM from DIV1, analysed at DIV5; BDNF 50 ng/ml as comparator; FIG. 1
Protocol: (§1) MeCP2 KO mouse primary cortical neurons were cultured at PO and morphological change was analyzed via immunocytochemistry.
BDNF (50 ng/ml) or Test compound (80 and 2000 nM) was treated from DIV1 to indicated days. At DIV5, the neurite outgrowth was analyzed with MAP2 immunostaining for analysis of neurite formation.

[6] = system: MeCP2 KO mouse primary cortical neurons; assay: Morphological recovery of MeCP2 KO primary neuron: synaptogenesis and soma size (Synapsin-1, MAP2, Hoechst, DIV14); format: cell-based; details: Test compound 1000 nM from DIV1, analysed at DIV14
Protocol: as §1
BDNF (50 ng/ml) or Test compound (1000 nM) was treated from DIV1 to indicated days. At DIV14, synaptogenesis and soma size were analyzed with Synapsin-1, MAP2 immunostaining and nuclear staining with Hoechst.

**Q.** For NC(=O)OC[C@H](N)Cc1ccccc1 [Test compound, (R)-(beta-amino-benzenepropyl) carbamate], which body weight change [1] is on record?
**A.** did not affect the body weight change

**Q.** What about the clasping [2] of the same molecule?
**A.** clasped less than vehicle-treated HET mice

**Q.** And the “increase of ILS %” value ([3]; 100 mg/kg po daily from about 5 weeks old, compared to vehicle-treated Null mice, FIG. 4)?
**A.** 42.7%

**Q.** And the life span ([3]; 100 mg/kg po daily, vs vehicle, P<0.0046, Log lank test)?
**A.** significant enhancement of life span

**Q.** And the “speed at fall (RPM score)” value [4]?
**A.** fell at higher speeds

**Q.** What about the “time to fall off from the rod” value [4] of the same molecule?
**A.** took more time to fall off from the rod

**Q.** What about the “neurite length (neurite outgrowth)” value [5] of the same molecule?
**A.** significantly enhanced the neurite length to a level similar to that of BDNF

**Q.** What about the synaptogenesis ([6]; FIG. 2) of the same molecule?
**A.** significantly enhanced

**Q.** And the soma size ([6]; FIG. 3)?
**A.** significantly enhanced

Source: patent publication US20240261248A1, “METHODS FOR TREATING AUTISM SPECTRUM DISORDERS (ASD)” (SK BIOPHARMACEUTICALS CO., LTD., priority 2021, published 2024)
